One assay deals with cotton ball granuloma. The class given is in vivo, SD rats. The settings on record: day 8; 5 mg/kg sc once a day (Dexamethasone, G2). The protocol: The rats are randomly divided into a model control group, a positive control (dexamethasone) group, and mPEG-SC20k-HM-3 groups using subcutaneous injection at a high dose, a medium dose and a low dose, a total of 5 groups, and the drugs are administered to each group of animals by subcutaneous injection, for 7 days in succession.
Rats in each group are anesthetized with pentobarbital sodium (40 mg/kg) by intraperitoneal injection, and the abdominal coat is cut off. The skin in the middle of the lower abdomen is cut open under aseptic condition, and the incision is about 1 cm long. The subcutaneous tissue is expanded by vascular forceps, and 30 mg of sterile dry cotton balls (weighed accurately by an electronic balance before the test, and undergoing conventional autoclaving and drying for later use) are implanted hypodermically into the groin on one side. The incision is sutured, and an appropriate amount of amoxicillin is sprinkled on the incision to prevent infection.
The drug is administered on the same day after surgery, and is administered for 7 days in succession. On day 8, the rats are killed by cervical dislocation, the cotton balls are removed surgically, the fat tissue is removed, and the […] at 60° C. The mass of granuloma is expressed in mg (granulomatoma)/100 g (body weight). The granuloma mass difference between each administration group and the model control group is compared, and the inhibition rate is calculated. Data statistical analysis is performed on significant differences between the groups.
Inhibition rate (%)=(average granuloma mass of model control group−average granuloma mass of administration group)/average granuloma mass of model control group×100%.

A further assay has as its system IL-1β. Description: IL-1β production by mouse peritoneal macrophages (LPS, ELISA). Type of assay: cell-based, C57BL/6 mice. The settings on record: 50 μmoL/L, LPS 5 μg/mL, 48 h. As for the experimental part:
In the test, mice are divided into […], namely a blank control group, a lipopolysaccharide (LPS) model group, a dexamethasone group, and mPEG-SC20k-HM-3 groups at different doses (0.56, 1.12, 2.25, 4.50, 9.00 μmol/L).
(1) IL-1 production: mice are intraperitoneally injected with 1 mL of broth medium (containing 6% of starch). After three days, mouse peritoneal macrophages are taken aseptically and washed twice with RPMI 1640 medium, and the cell concentration is adjusted to 2×10^6 cells/mL. The cells are injected into a 24-well culture plate, 1 mL per well, and the cells are incubated in a cell incubator for 3 h, and vibrated once every 30 min to make the cells fully adhere. Then the cells are washed twice with culture solution to remove non-adherent cells, are cultured continuously for 48 h after administration, and are centrifuged at 1000 r for 15 min. The supernatant is collected as a sample with IL-1β to be tested. (2) Determination of IL-1 content: various solutions are prepared; tested samples and standard substances with different concentrations (100 μL/well) are added into the corresponding wells, reaction wells are sealed with plate-sealing adhesive tape, and incubation is performed at 37° C. for 90 min; the plate is washed four times; biotinylated antibody working solution (100 μL/well) is added, the reaction wells are sealed with plate-sealing adhesive tape, and incubation is performed at 37° C. for 60 min; the plate is washed four times; enzyme conjugate working solution (100 μL/well) is added, the reaction wells are sealed with plate-sealing adhesive tape, and incubation is performed at 37° C. for 30 min; the plate is washed four times; chromogenic reagent (100 μL/well) is added, and incubation is performed at 37° C. for 10-20 min in the absence of light; stop solution (100 μL/well) is added, and the OD 450 nm absorbance is measured immediately after uniform mixing (within 5 min).
A general note: An ELISA detects its analyte on a solid surface through an enzyme-linked reagent.

Assay [1] deals with tumor in BALB/c nude mice. Briefly: in vivo pharmacodynamics (antitumor) of PEG-modified HM-3 in BALB/c nude mice. The settings on record: BALB/c nude mice. The source says: Four different types of mPEG-ALD and mPEG-SC with different molecular weights are selected to modify the polypeptide […](named HM-3), i.e., mPEG-ALD5k, mPEG-ALD10k, mPEG-SC10k, mPEG-SC20k, and modification reaction conditions are explored and optimized.

A further assay concerns AIA rat models. Briefly: adjuvant-induced arthritis (AIA) rat models. The class given is in vivo, SD rats. The settings on record: for therapeutic effect on adjuvant-induced arthritis in rats (conclusion): rat, in vivo.
In another assay the test system is CIA mouse models. Description: collagen-induced arthritis (CIA) mouse models. Type of assay: in vivo, DBA/1 mice. The note with it: for therapeutic effect on collagen-induced arthritis in mice (conclusion): mouse, in vivo.
[2] abbreviates: Table 2, methotrexate 1 mg/kg, once every 5 days, three times.
[3] abbreviates: Tables 4 and 6, methotrexate 1 mg/kg.
Setting [4] is: Table 1, methotrexate 1 mg/kg, once every 5 days, three times.
[5] abbreviates: Tables 3 and 5, methotrexate 1 mg/kg.
Where [6] appears, read: high dose 0.4 mg/kg twice a day, 10 days.
Setting [7] is: low dose 0.1 mg/kg twice a day, 10 days.
[8] abbreviates: medium dose 0.2 mg/kg twice a day, 10 days.
[9] abbreviates: high dose 0.8 mg/kg twice a day, 10 days.
[10] abbreviates: low dose 0.2 mg/kg twice a day, 10 days.
Setting [11] is: medium dose 0.4 mg/kg twice a day, 10 days.
The mark [12] stands for this setting: high dose 1.6 mg/kg three times a day, 10 days.
[13] abbreviates: low dose 0.4 mg/kg three times a day, 10 days.
The mark [14] stands for this setting: medium dose 0.8 mg/kg three times a day, 10 days.
Setting [15] is: high dose 3.2 mg/kg twice a day, 10 days.
[16] abbreviates: low dose 0.8 mg/kg twice a day, 10 days (polypeptide II).
Setting [17] is: medium dose 1.6 mg/kg twice a day, 10 days.

What is called inhibition is the percentage by which the read-out fell short of the control.

Marks after values point to notes of the source that are not given here. Where no end group is shown, it is not given here.

`C[C@@H]1C[C@H]2[C@@H]3CCC4=CC(=O)C=C[C@]4(C)[C@@]3(F)[C@@H](O)C[C@]2(C)[C@@]1(O)C(=O)CO` [Dexamethasone, reference compound]: in the assay with cotton ball granuloma, the “Inhibition rate of cotton ball granuloma” value is on record as 61.59** % and the cotton ball granuloma is listed as 0.11 ± 0.04 mg(cotton ball granuloma)/100 g(weight). The same compound returned an IL-1β content in the assay with IL-1β of 208.19 ± 13.78 pg/mL. The inhibition at 50 µM in the assay on IL-1β (Mus musculus, Peritoneal macrophage, read-out: Inhibition rate) turned out to be 79%.
In the case of `CC(=O)O[C@H]1C(=O)[C@@]2(C)[C@H]([C@H](OC(=O)c3ccccc3)[C@]3(O)C[C@H](OC(=O)[C@H](O)[C@@H](NC(=O)c4ccccc4)c4ccccc4)C(C)=C1C3(C)C)[C@]1(OC(C)=O)CO[C@@H]1C[C@@H]2O` [paclitaxel, reference compound], the “antitumor effect in vivo” value in assay [1] turned out to be 44.50%.
For the compound `CN(Cc1cnc2nc(N)nc(N)c2n1)c1ccc(C(=O)N[C@@H](CCC(=O)O)C(=O)O)cc1` [positive control, methotrexate, reference compound], in the assay on AIA rat models (setting [2]), the clinical scoring stood at 5.0 ± 1.0, the “swelling of left paw” value came out at 3.60 ± 0.72 mm and the “swelling of right paw” value came to 0.68 ± 0.19 mm. In the assay on AIA rat models (setting [3]), the clinical scoring worked out at 4.00 ± 0.00, the “swelling of left paw” value turned out to be 3.23 ± 1.20 mm and the “swelling of right paw” value was found to be 0.13 ± 0.33 mm. In the assay with CIA mouse models (setting [4]), this compound returned a clinical scoring of 8.1 ± 1.2, a swelling of joints of 0.76 ± 0.17 mm and a swelling of paws of 0.95 ± 0.19 mm. Also, in the assay with CIA mouse models (setting [5]), the clinical scoring stood at 2.33 ± 2.73, the swelling of joints is reported as −0.19 mm and the swelling of paws worked out at 0.21 ± 0.45 mm.
Regarding “ACDCRGDCFCGGGGIVRRADRAAVP (cysteine pairing not given here) [polypeptide I, No. 1]”, the clinical scoring with AIA rat models (setting [6]) is recorded as 6.0 ± 1.2; in the assay with AIA rat models (setting [7]) it was 5.7 ± 1.1; in the assay on AIA rat models (setting [8]), 5.3 ± 1.0; in the assay with CIA mouse models (setting [9]), 10.4 ± 1.6; in the assay with CIA mouse models (setting [10]), 9.7 ± 1.5; with CIA mouse models (setting [11]) it was 9.1 ± 1.4. Besides, the results for the “swelling of left paw” value in the assay on AIA rat models (setting [6]), in the assay on AIA rat models (setting [7]) and with AIA rat models (setting [8]) were 4.77 ± 0.95 mm, 4.27 ± 0.85 mm and 3.81 ± 0.76 mm, respectively. The “swelling of right paw” value stood at 1.25 ± 0.30 mm in the assay with AIA rat models (setting [6]), 1.18 ± 0.31 mm in the assay with AIA rat models (setting [7]) and 0.79 ± 0.18 mm in the assay on AIA rat models (setting [8]). Also, in the assay with AIA rat models, the “therapeutic effect on adjuvant-induced arthritis in rats (conclusion)” value is given as “CONCLUSION: polypeptide I has therapeutic effect on adjuvant-induced arthritis in rats”. Moreover, the swelling of joints in the assay with CIA mouse models (setting [9]) is recorded as 1.05 ± 0.31 mm; in the assay on CIA mouse models (setting [10]), 0.93 ± 0.23 mm; with CIA mouse models (setting [11]), 0.76 ± 0.17 mm. The values for the swelling of paws in the assay on CIA mouse models (setting [9]), with CIA mouse models (setting [10]) and in the assay on CIA mouse models (setting [11]) were 1.29 ± 0.26 mm, 1.10 ± 0.22 mm and 0.92 ± 0.18 mm, respectively. Besides, the “therapeutic effect on collagen-induced arthritis in mice (conclusion)” value with CIA mouse models is on record as “CONCLUSION: polypeptide I has therapeutic effect on collagen-induced arthritis in mice”.
Consider “IVRRADRAAVPGGGGRGD [polypeptide II, No. 2]”, for which the clinical scoring worked out at 7.29 ± 3.40 in the assay with AIA rat models (setting [12]); 8.29 ± 4.86 in the assay on AIA rat models (setting [13]); 6.57 ± 4.24 in the assay on AIA rat models (setting [14]); 2.67 ± 2.34 with CIA mouse models (setting [15]); 2.33 ± 3.14 in the assay on CIA mouse models (setting [16]); 5.83 ± 2.93 in the assay on CIA mouse models (setting [17]). For the same compound, the “swelling of left paw” value is on record as 4.98 ± 1.97 mm in the assay with AIA rat models (setting [12]), 5.03 ± 1.99 mm with AIA rat models (setting [13]) and 4.50 ± 1.95 mm in the assay with AIA rat models (setting [14]). For the same compound, the figures for the “swelling of right paw” value with AIA rat models (setting [12]), in the assay on AIA rat models (setting [13]) and with AIA rat models (setting [14]) were 1.97 ± 1.56 mm, 1.56 ± 1.66 mm and 1.63 ± 1.57 mm, respectively. Further, in the assay on AIA rat models, the “therapeutic effect on adjuvant-induced arthritis in rats (conclusion)” value is “CONCLUSION: polypeptide II has therapeutic effect on adjuvant-induced arthritis, and its effect is higher than that of polypeptide I”. In addition, the swelling of joints in the assay with CIA mouse models (setting [15]) is −0.18 mm; in the assay with CIA mouse models (setting [16]), −0.19 mm; in the assay with CIA mouse models (setting [17]) it was 0.35 mm. The figures for the swelling of paws in the assay on CIA mouse models (setting [15]), in the assay on CIA mouse models (setting [16]) and in the assay with CIA mouse models (setting [17]) were 0.23 ± 0.35 mm, 0.13 ± 0.28 mm and 0.45 ± 0.41 mm, respectively. In addition, the “therapeutic effect on collagen-induced arthritis in mice (conclusion)” value in the assay with CIA mouse models is “CONCLUSION: polypeptide II has therapeutic effect on collagen-induced arthritis in mice”. For the same compound, the “antitumor effect in vivo” value in assay [1] was determined as 43.92%.

The values are drawn from patent publication US20220202912A1, “Polypeptides in Preparation of Drugs for Treatment or Prevention of Rheumatoid Arthritis” (priority 2011, published 2022).
